From patent US20250262201A1, “COMPOUNDS AND METHODS USEFUL FOR STABILIZING PHENYLALANINE HYDROXYLASE MUTATIONS” (Agios Pharmaceuticals, Inc., priority 2022, published 2025) come the findings set out here.

Structures can show the parent of a compound that is named as a salt.

The first assay addresses T1, human PAH with the R408W mutation (Homo sapiens, UniProt P00439, R408W).
T1 construct: expressed in transfected cells
T1 sequence (P00439 1-452 R408W): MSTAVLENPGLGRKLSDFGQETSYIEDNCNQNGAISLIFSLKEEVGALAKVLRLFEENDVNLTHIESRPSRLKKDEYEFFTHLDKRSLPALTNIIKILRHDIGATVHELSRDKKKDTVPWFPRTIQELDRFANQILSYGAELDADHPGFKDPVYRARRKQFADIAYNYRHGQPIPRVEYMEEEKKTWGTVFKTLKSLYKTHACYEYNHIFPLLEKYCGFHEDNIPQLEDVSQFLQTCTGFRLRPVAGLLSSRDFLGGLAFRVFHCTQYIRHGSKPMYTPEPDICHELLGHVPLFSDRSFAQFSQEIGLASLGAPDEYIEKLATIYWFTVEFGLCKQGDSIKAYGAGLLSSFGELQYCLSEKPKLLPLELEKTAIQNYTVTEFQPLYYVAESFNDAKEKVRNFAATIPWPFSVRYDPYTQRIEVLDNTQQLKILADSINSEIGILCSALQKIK
In words: Cell Based Phenylalanine Flux Assay. The arrangement: scale not given here. As to conditions: A375 R408W cells, 24 hrs with compound, then 20 μM sepiapterin and 800 μM 13C9,15N-Phenylalanine for 4 hours; 13C-Tyrosine by LC-MS; average where tested multiple times.
As to `Cc1nnc(C(=O)N2CC(C)c3[nH]cnc3C2c2cc3ccccc3cn2)o1` [(4S, 7S) diastereomer of 3-[7-methyl-5-(5-methyl-1,3,4-oxadi], the AC50 (in general, the midpoint of the concentration-response curve, whichever way the signal moves) is reported as “E, E”. Take `CC1CN(C(=O)c2nnc(N3CCN(C)CC3)o2)C(c2cc3ccccc3cn2)c2nc[nH]c21` [(4S, 7S) diastereomer of 3-[7-methyl-5-[5-(4-methylpiperazin]: the AC50 entry is on record as “E, E”. Turning to `COCCNc1nnc(C(=O)N2CC(C)c3[nH]cnc3C2c2cc3ccccc3cn2)o1` [(4S, 7S) diastereomer of 5-[4-(isoquinolin-3-yl)-7-methyl-1H], the AC50 entry is reported as “E, E”. On to `CC1CN(C(=O)c2oc(C(C)(C)O)nc2C(F)(F)F)C(c2cc3ccccc3cn2)c2nc[nH]c21` [(4S, 7S) diastereomer of (2-(2-hydroxypropan-2-yl)-4-(triflu], for which the AC50 result is on record as “E, E”.

Regarding `CC1CN(C(=O)c2oc(-c3ccccn3)nc2C(F)(F)F)C(c2cc3ccccc3cn2)c2nc[nH]c21` [(4S, 7S) diastereomer of (4-(isoquinolin-3-yl)-7-methyl-6,7-], the AC50 result is reported as “E, E”.

Staying with this assay, now noted: A375 cells expressing human R408W PAH; 24 hrs compound incubation; 13C-Tyrosine by LC-MS; average where tested multiple times; read-out: AC50.
With `O=C(c1nnc(-c2ccc(F)cc2)o1)N1CCc2[nH]cnc2[C@@H]1c1ccc2ccccc2n1` [Example 12], the AC50 was above 5 µM. Same read-out and setting: the result for `Cc1nc(C(C)(C)O)oc1C(=O)N1CCc2[nH]cnc2[C@H]1c1ccc2ccccc2n1` [Example 13] reads 1 to 5 µM; that for `O=C(c1nnc(-c2c(F)cccc2F)o1)N1CCc2[nH]cnc2[C@@H]1c1ccc2ccccc2n1` [Example 24], above 5 µM.

`Cc1nc(-c2cnn(C)c2)oc1C(=O)N1CCc2[nH]cnc2[C@H]1c1ccc2ccccc2n1` [Example 26]: the AC50 was below 0.5 µM. For `O=C(c1oc(-c2ccccn2)nc1C(F)F)N1CCc2[nH]cnc2[C@@H]1c1ccc2ccccc2n1` [Example 66], the AC50 was in the range of 1 to 5 µM. Still for that read-out and setting: next, `Cn1ncnc1C(=O)N1CCc2[nH]cnc2[C@@H]1c1ccc2ccccc2n1` [Example 79]: above 5 µM. The same measure, in the same setting: next, `Cn1cc(C(=O)N2CCc3[nH]cnc3[C@@H]2c2ccc3ccccc3n2)c(Cl)n1` [Example 87]: 1 to 5 µM; `O=C(c1nnc(-c2ccn(C(F)F)n2)o1)N1CCc2[nH]cnc2[C@H]1c1ccc2ccccc2n1` [Example 96]: 0.5 to 1 µM. The same measure, in the same setting: the result for `O=C(c1nnc(C2CC2)o1)N1CCc2[nH]cnc2[C@H]1c1ncc2ccccc2n1` [Example 139, (S)-(5-cyclopropyl-1,3,4-oxadiazol-2-yl)(4-(quinazolin-2-yl)-6,7-dihydro-1H-imidazo[4,5-c]pyridin-5(4H)-yl)methanone] reads 0.5 to 1 µM; that for `O=C(c1nnc(C2CC2)o1)N1CCc2[nH]cnc2[C@@H]1c1ncc2ccccc2n1` [Example 140, (R)-(5-cyclopropyl-1,3,4-oxadiazol-2-yl)(4-(quinazolin-2-yl)-6,7-dihydro-1H-imidazo[4,5-c]pyridin-5(4H)-yl)methanone], above 5 µM; that for `Cc1nc(C(C)(C)O)oc1C(=O)N1CCc2[nH]cnc2[C@H]1c1ncc2ccccc2n1` [Example 141, (S)-(2-(2-hydroxypropan-2-yl)-4-methyloxazol-5-yl)(4-(quinazolin-2-yl)-6,7-dihydro-1H-imidazo[4,5-c]pyridin-5(4H)-yl)methanone hydrochloride], below 0.5 µM.

Regarding `Cc1nc(C(C)(C)O)oc1C(=O)N1CCc2[nH]cnc2[C@@H]1c1ncc2ccccc2n1` [Example 142, (R)-(2-(2-hydroxypropan-2-yl)-4-methyloxazol-5-yl)(4-(quinazolin-2-yl)-6,7-dihydro-1H-imidazo[4,5-c]pyridin-5(4H)-yl)methanone hydrochloride], the concentration at half-maximal activity (AC50) was above 5 µM. Still for that read-out and setting: next, `Cn1cc(-c2nnc(C(=O)N3CCc4[nH]cnc4[C@H]3c3ncc4ccccc4n3)o2)cn1` [Example 143, (S)-(5-(1-methyl-1H-pyrazol-4-yl)-1,3,4-oxadiazol-2-yl)(4-(quinazolin-2-yl)-6,7-dihydro-1H-imidazo[4,5-c]pyridin-5(4H)-yl)methanone]: 0.5 to 1 µM; `Cn1cc(-c2nnc(C(=O)N3CCc4[nH]cnc4[C@@H]3c3ncc4ccccc4n3)o2)cn1` [Example 144, (R)-(5-(1-methyl-1H-pyrazol-4-yl)-1,3,4-oxadiazol-2-yl)(4-(quinazolin-2-yl)-6,7-dihydro-1H-imidazo[4,5-c]pyridin-5(4H)-yl)methanone]: above 5 µM. In the case of `O=C(c1nnc(-c2ccccn2)o1)N1CCc2[nH]cnc2[C@H]1c1ncc2ccccc2n1` [Example 145, (S)-(5-(pyridin-2-yl)-1,3,4-oxadiazol-2-yl)(4-(quinazolin-2-yl)-6,7-dihydro-1H-imidazo[4,5-c]pyridin-5(4H)-yl)methanone], the AC50 was below 0.5 µM.

As for `O=C(c1nnc(-c2ccccn2)o1)N1CCc2[nH]cnc2[C@@H]1c1ncc2ccccc2n1` [Example 146, (R)-(5-(pyridin-2-yl)-1,3,4-oxadiazol-2-yl)(4-(quinazolin-2-yl)-6,7-dihydro-1H-imidazo[4,5-c]pyridin-5(4H)-yl)methanone], the AC50 fell in the range of 1 to 5 µM. On the same count and under the same terms, the result for `N#Cc1ncoc1C(=O)N1CCc2[nH]cnc2[C@H]1c1ncc2ccccc2n1` [Example 147, (S)-5-(4-(quinazolin-2-yl)-4,5,6,7-tetrahydro-1H-imidazo[4,5-c]pyridine-5-carbonyl)oxazole-4-carbonitrile] reads below 0.5 µM; that for `N#Cc1ncoc1C(=O)N1CCc2[nH]cnc2[C@@H]1c1ncc2ccccc2n1` [Example 148, (R)-5-(4-(quinazolin-2-yl)-4,5,6,7-tetrahydro-1H-imidazo[4,5-c]pyridine-5-carbonyl)oxazole-4-carbonitrile], 1 to 5 µM.

Take `O=C(c1cnco1)N1CCc2[nH]cnc2[C@H]1c1ncc2ccccc2n1` [Example 149, (S)-oxazol-5-yl(4-(quinazolin-2-yl)-6,7-dihydro-1H-imidazo[4,5-c]pyridin-5(4H)-yl)methanone]: the concentration at half-maximal activity (AC50) was below 0.5 µM. For `O=C(c1cnco1)N1CCc2[nH]cnc2[C@@H]1c1ncc2ccccc2n1` [Example 150, (R)-oxazol-5-yl(4-(quinazolin-2-yl)-6,7-dihydro-1H-imidazo[4,5-c]pyridin-5(4H)-yl)methanone], the AC50 was above 5 µM. For `O=C(c1nnc(C2CC(F)(F)C2)o1)N1CCc2[nH]cnc2[C@H]1c1ncc2ccccc2n1` [Example 151, (S)-(5-(3,3-difluorocyclobutyl)-1,3,4-oxadiazol-2-yl)(4-(quinazolin-2-yl)-6,7-dihydro-1H-imidazo[4,5-c]pyridin-5(4H)-yl)methanone], the AC50 lay in the range of 0.5 to 1 µM. As for `O=C(c1nnc(C2CC(F)(F)C2)o1)N1CCc2[nH]cnc2[C@@H]1c1ncc2ccccc2n1` [Example 152, (R)-(5-(3,3-difluorocyclobutyl)-1,3,4-oxadiazol-2-yl)(4-(quinazolin-2-yl)-6,7-dihydro-1H-imidazo[4,5-c]pyridin-5(4H)-yl)methanone], the AC50 is above 5 µM. In the case of `COCc1ccc2c(C(=O)N3CCc4[nH]cnc4[C@H]3c3ncc4ccccc4n3)cnn2c1` [Example 153], the AC50 is 0.5 to 1 µM. On to `COCc1ccc2c(C(=O)N3CCc4[nH]cnc4[C@@H]3c3ncc4ccccc4n3)cnn2c1` [Example 154, (R)-(6-(methoxymethyl)pyrazolo[1,5-a]pyridin-3-yl)(4-(quinazolin-2-yl)-6,7-dihydro-1H-imidazo[4,5-c]pyridin-5(4H)-yl)methanone], for which the AC50 is above 5 µM. For the compound `CN(C)Cc1ccc2c(C(=O)N3CCc4[nH]cnc4[C@H]3c3ncc4ccccc4n3)cnn2c1` [Example 155, (S)-(6-((dimethylamino)methyl)pyrazolo[1,5-a]pyridin-3-yl)(4-(quinazolin-2-yl)-6,7-dihydro-1H-imidazo[4,5-c]pyridin-5(4H)-yl)methanone], the AC50 is 0.5 to 1 µM. For `CN(C)Cc1ccc2c(C(=O)N3CCc4[nH]cnc4[C@@H]3c3ncc4ccccc4n3)cnn2c1` [Example 156, (R)-(6-((dimethylamino)methyl)pyrazolo[1,5-a]pyridin-3-yl)(4-(quinazolin-2-yl)-6,7-dihydro-1H-imidazo[4,5-c]pyridin-5(4H)-yl)methanone], the AC50 was above 5 µM. Turning to `O=C(c1cnc(-c2ccccn2)o1)N1CCc2[nH]cnc2[C@@H]1c1ncc2ccccc2n1` [Example 157, (R)-(2-(pyridin-2-yl)oxazol-5-yl)(4-(quinazolin-2-yl)-6,7-dihydro-1H-imidazo[4,5-c]pyridin-5(4H)-yl)methanone], the AC50 is above 5 µM. Regarding `O=C(c1cnc(-c2ccccn2)o1)N1CCc2[nH]cnc2[C@H]1c1ncc2ccccc2n1` [Example 158, (S)-(2-(pyridin-2-yl)oxazol-5-yl)(4-(quinazolin-2-yl)-6,7-dihydro-1H-imidazo[4,5-c]pyridin-5(4H)-yl)methanone], the AC50 fell in the range of 0.5 to 1 µM.

For the compound `O=C(c1nnc(N2CCC(F)CC2)o1)N1CCc2[nH]cnc2[C@H]1c1ncc2ccccc2n1` [Example 159, (S)-(5-(4-fluoropiperidin-1-yl)-1,3,4-oxadiazol-2-yl)(4-(quinazolin-2-yl)-6,7-dihydro-1H-imidazo[4,5-c]pyridin-5(4H)-yl)methanone], the AC50 was 1 to 5 µM. `O=C(c1nnc(N2CCC(F)CC2)o1)N1CCc2[nH]cnc2[C@@H]1c1ncc2ccccc2n1` [Example 160, (R)-(5-(4-fluoropiperidin-1-yl)-1,3,4-oxadiazol-2-yl)(4-(quinazolin-2-yl)-6,7-dihydro-1H-imidazo[4,5-c]pyridin-5(4H)-yl)methanone]: the AC50 is above 5 µM.
